Legend:
[1] = system: human neuronal calcium channel α2 and β1 subunits; assay: Two-electrode voltage clamp of Xenopus oöcytes injected with α2 and β1 transcripts; details: Bay K 8644; n=11
α1B-1α2bβ1-2 [2] = biological target: T1, α1B-1α2bβ1-2 (Homo sapiens, UniProt Q00975); assay type: cell-based
T1 construct: A full-length α1B DNA clone was constructed by ligating portions of the partial cDNA clones; expressed in transfected cells; host or cells: HEK293 (transient)

[3] = system: untransfected HEK 293 cells; assay: Whole-cell patch clamp of untransfected HEK 293 cells; assay type: cell-based, human; details: with or without cAMP or forskolin
α1B-2β1-2 = biological target: T2, α1B-2β1-2 (Homo sapiens, UniProt Q00975); assay type: binding
T2 construct: Full-length DNA clones and corresponding RNA transcripts, encoding α1, including splice variants of α1A, α1B; expressed in transfected cells; host or cells: HEK293 (transient)

α1B-2α2bβ1-3 = biological target: T3, α1B-2α2bβ1-3 (Homo sapiens, UniProt Q00975); assay type: binding
T3 construct: Full-length DNA clones and corresponding RNA transcripts, encoding α1, including splice variants of α1A, α1B; expressed in transfected cells; host or cells: HEK293 (transient)

α1B-2a2bβ1-2 = biological target: T4, α1B-2a2bβ1-2 (Homo sapiens, UniProt Q00975); assay type: binding
T4 construct: Full-length DNA clones and corresponding RNA transcripts, encoding α1, including splice variants of α1A, α1B; expressed in transfected cells; host or cells: HEK293 (transient)

α1B-1α2b = biological target: T5, α1B-1α2b (Homo sapiens, UniProt Q00975); assay type: binding
T5 construct: A full-length α1B DNA clone was constructed by ligating portions of the partial cDNA clones; expressed in transfected cells; host or cells: HEK293 (transient)

α1B-1α2bβ1-2 [4] = biological target: T1, α1B-1α2bβ1-2; assay type: binding
α1B-1β1-2 = biological target: T6, α1B-1β1-2 (Homo sapiens, UniProt Q00975); assay type: binding
T6 construct: A full-length α1B DNA clone was constructed by ligating portions of the partial cDNA clones; expressed in transfected cells; host or cells: HEK293 (transient)

α1B-1β1-3 = biological target: T7, α1B-1β1-3 (Homo sapiens, UniProt Q00975); assay type: binding
T7 construct: A full-length α1B DNA clone was constructed by ligating portions of the partial cDNA clones; expressed in transfected cells; host or cells: HEK293 (transient)

α1B-2β1-3 = biological target: T8, α1B-2β1-3 (Homo sapiens, UniProt Q00975); assay type: binding
T8 construct: Full-length DNA clones and corresponding RNA transcripts, encoding α1, including splice variants of α1A, α1B; expressed in transfected cells; host or cells: HEK293 (transient)

α1B-1α2bβ1-3 = biological target: T9, α1B-1α2bβ1-3 (Homo sapiens, UniProt Q00975); assay type: binding
T9 construct: A full-length α1B DNA clone was constructed by ligating portions of the partial cDNA clones; expressed in transfected cells; host or cells: HEK293 (transient)

[5] = biological target: T10, α1B-1, α2b, and β1-2 subunits (Homo sapiens, UniProt Q00975); assay type: binding
T10 construct: A full-length α1B DNA clone was constructed by ligating portions of the partial cDNA clones; expressed in transfected cells; host or cells: HEK293 (transient)

T1 sequence (Q00975 whole entry, looked up): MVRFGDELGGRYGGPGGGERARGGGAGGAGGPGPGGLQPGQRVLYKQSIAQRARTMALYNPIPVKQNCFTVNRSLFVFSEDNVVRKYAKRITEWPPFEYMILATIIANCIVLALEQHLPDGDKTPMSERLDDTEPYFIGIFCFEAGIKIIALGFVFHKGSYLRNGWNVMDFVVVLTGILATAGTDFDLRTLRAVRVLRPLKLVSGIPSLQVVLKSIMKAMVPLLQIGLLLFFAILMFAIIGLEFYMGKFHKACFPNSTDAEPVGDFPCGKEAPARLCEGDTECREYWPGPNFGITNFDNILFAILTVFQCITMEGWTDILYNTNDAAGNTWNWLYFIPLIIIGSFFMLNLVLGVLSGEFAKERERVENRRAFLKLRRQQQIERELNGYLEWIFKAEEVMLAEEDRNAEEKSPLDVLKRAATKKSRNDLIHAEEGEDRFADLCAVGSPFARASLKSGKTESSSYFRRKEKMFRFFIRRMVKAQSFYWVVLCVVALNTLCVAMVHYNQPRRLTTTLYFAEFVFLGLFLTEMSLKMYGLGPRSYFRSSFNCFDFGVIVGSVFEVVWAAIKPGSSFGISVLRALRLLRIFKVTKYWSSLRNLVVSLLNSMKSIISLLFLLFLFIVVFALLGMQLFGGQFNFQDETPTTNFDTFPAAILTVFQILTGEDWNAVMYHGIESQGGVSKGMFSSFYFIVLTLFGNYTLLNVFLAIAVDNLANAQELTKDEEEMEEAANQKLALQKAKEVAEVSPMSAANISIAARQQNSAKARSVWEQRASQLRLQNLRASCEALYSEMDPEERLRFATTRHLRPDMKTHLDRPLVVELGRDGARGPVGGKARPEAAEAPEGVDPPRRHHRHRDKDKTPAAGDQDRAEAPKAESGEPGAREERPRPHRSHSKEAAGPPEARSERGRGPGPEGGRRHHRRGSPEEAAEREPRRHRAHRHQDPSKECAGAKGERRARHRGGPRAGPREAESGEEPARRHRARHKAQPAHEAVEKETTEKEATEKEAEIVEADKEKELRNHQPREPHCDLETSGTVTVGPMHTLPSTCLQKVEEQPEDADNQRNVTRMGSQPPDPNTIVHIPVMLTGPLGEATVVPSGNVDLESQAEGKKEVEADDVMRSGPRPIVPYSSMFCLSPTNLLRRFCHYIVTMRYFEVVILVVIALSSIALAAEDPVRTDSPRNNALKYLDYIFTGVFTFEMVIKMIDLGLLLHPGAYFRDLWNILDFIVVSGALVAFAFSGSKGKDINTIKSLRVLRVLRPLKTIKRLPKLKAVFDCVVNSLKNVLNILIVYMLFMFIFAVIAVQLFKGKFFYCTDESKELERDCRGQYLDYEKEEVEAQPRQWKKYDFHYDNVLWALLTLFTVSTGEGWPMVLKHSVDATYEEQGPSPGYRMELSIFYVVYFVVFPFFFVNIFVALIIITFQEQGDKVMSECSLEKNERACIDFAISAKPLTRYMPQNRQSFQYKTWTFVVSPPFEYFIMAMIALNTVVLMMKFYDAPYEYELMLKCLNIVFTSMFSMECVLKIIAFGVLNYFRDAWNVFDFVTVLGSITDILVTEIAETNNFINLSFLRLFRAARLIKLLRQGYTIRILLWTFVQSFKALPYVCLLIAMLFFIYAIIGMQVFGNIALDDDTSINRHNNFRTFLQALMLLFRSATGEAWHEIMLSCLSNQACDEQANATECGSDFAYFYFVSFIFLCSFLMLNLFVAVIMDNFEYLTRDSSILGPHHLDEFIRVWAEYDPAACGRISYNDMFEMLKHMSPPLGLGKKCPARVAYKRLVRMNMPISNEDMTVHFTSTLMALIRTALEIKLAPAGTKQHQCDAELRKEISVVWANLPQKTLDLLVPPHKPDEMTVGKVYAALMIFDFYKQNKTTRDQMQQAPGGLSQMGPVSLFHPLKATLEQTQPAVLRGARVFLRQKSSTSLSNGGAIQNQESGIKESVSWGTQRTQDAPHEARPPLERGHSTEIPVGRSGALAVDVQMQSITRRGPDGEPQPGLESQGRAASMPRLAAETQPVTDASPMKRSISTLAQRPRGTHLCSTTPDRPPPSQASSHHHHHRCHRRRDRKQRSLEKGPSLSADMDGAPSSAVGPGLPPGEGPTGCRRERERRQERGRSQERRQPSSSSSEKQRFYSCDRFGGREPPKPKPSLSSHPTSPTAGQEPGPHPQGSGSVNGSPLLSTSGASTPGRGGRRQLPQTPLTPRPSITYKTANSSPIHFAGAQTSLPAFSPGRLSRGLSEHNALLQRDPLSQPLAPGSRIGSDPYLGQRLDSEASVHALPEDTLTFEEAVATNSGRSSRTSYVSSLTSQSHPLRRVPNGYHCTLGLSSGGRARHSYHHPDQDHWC
T4 sequence (Q00975 1-2237 isoform Q00975-2): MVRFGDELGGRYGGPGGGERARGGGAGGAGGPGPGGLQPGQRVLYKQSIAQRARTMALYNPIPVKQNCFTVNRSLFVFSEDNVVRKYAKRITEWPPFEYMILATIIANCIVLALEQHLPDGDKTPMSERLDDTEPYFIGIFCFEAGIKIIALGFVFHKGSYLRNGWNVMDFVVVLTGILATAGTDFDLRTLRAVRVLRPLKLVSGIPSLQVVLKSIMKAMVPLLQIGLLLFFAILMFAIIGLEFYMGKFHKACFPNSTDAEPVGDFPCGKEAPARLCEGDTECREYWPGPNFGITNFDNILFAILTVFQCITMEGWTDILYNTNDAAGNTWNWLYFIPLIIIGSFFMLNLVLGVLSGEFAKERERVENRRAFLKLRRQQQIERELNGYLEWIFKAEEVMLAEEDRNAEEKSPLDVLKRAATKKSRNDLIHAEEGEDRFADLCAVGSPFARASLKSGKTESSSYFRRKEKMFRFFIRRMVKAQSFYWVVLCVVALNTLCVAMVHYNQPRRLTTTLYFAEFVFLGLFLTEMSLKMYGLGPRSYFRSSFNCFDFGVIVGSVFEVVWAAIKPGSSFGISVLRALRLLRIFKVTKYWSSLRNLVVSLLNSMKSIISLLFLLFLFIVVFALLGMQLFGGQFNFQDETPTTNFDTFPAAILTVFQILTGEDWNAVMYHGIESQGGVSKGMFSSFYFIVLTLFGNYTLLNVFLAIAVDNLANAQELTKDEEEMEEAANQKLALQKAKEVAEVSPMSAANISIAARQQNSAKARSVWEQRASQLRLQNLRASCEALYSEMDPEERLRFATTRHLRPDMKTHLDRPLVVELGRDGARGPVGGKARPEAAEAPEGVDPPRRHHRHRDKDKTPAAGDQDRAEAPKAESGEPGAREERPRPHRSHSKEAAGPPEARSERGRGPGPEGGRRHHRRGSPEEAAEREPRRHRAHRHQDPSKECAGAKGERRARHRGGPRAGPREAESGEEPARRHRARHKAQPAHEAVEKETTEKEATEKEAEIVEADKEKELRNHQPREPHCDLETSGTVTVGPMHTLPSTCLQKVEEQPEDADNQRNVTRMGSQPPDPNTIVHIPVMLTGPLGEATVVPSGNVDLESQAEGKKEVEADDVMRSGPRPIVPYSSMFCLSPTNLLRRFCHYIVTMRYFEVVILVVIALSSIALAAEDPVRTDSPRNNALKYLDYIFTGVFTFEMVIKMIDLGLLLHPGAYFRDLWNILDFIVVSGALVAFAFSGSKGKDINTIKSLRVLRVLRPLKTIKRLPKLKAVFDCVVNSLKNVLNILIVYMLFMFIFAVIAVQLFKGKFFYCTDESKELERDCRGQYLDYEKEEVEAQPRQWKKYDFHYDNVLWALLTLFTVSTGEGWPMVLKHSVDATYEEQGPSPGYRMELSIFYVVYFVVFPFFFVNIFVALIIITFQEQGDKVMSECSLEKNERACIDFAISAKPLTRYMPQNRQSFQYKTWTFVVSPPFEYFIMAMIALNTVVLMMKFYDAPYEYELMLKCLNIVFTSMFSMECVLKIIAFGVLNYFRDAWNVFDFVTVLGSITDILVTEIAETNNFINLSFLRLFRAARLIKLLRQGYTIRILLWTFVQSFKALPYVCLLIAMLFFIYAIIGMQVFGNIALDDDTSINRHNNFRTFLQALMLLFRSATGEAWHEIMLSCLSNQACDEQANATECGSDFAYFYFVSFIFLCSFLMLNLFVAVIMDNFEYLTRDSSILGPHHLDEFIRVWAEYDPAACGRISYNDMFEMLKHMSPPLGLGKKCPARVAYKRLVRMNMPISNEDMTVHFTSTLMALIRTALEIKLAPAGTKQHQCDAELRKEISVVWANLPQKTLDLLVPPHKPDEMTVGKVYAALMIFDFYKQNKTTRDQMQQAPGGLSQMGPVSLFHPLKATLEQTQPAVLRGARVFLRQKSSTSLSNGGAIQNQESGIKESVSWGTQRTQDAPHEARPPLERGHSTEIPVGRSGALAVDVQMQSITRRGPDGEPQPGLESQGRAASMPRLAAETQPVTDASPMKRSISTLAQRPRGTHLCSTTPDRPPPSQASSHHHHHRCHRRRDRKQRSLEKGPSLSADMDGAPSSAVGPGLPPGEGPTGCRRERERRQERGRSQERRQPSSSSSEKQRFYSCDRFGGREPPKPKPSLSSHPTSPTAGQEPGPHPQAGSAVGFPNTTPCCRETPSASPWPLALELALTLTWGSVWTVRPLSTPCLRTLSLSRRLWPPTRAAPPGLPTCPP
T2 sequence (Q00975 1-2237 isoform Q00975-2): as above
T2 sequence (Q02641 1-478 isoform Q02641-3 partner): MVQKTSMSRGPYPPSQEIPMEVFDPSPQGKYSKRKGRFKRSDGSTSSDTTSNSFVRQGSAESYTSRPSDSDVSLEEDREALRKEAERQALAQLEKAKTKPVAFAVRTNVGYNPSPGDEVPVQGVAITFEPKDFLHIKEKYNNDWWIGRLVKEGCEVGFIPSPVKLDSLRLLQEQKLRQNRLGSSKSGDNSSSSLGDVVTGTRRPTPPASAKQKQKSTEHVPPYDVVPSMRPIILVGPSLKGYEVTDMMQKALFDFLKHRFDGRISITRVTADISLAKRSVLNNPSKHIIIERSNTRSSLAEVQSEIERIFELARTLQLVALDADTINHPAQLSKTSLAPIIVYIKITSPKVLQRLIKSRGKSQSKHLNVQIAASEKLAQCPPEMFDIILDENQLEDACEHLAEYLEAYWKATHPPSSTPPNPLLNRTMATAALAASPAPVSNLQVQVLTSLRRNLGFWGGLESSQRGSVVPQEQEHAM
T3 sequence (Q00975 1-2237 isoform Q00975-2): as the sequence (Q00975 1-2237 isoform Q00975-2) above

For `COC(=O)C1=C(C)NC(C)=C([N+](=O)[O-])C1c1ccccc1C(F)(F)F` (centres unmarked) [Bay K 8644], the “sensitivity of inward barium currents” value [1] was “insensitive”, the “effect on channel activity” value (α1B-1α2bβ1-2 [2]; 1 μM, n=4) was “no discernable effect” and the “effects of Bay K 8644 (current magnitude, tail currents, activation voltage)” value [3] was “No such effects”.
In the case of `C[C@@H](O)[C@@H]1NC(=O)[C@H](Cc2ccc(O)cc2)NC(=O)[C@@H]2C[C@@H](O)CN2C(=O)[C@H](CC(N)=O)NC(=O)[C@@H]2CSSC[C@@H]3NC(=O)[C@H](CO)NC(=O)[C@H](CO)NC(=O)CNC(=O)[C@@H]4C[C@@H](O)CN4C(=O)[C@H](CO)NC(=O)[C@H](CCCCN)NC(=O)[C@@H](N)CSSC[C@H](NC(=O)[C@H](CSSC[C@@H](C(=O)N[C@@H](Cc4ccc(O)cc4)C(N)=O)NC(=O)[C@H](CCCNC(=N)N)NC(=O)[C@H](CCCCN)NC1=O)NC(=O)[C@H](CC(N)=O)NC(=O)[C@H](Cc1ccc(O)cc1)NC(=O)[C@H](CO)NC(=O)[C@H]([C@@H](C)O)NC(=O)[C@@H]1C[C@@H](O)CN1C(=O)[C@H](CO)NC3=O)C(=O)N[C@@H](CCCNC(=N)N)C(=O)N[C@@H](CO)C(=O)N2` [^125I-ω-CgTx GVIA], the “Bmax (sites/cell)” value (α1B-2β1-2) was 2,126 ± 412 sites/cell, the “Bmax (sites/cell)” value (α1B-2α2bβ1-3) was 37,652 ± 8,129 sites/cell and the “Bmax (sites/cell)” value (α1B-2a2bβ1-2) was 19,371 ± 3,798 sites/cell. For the same molecule, the “Bmax (sites/cell)” value (α1B-1α2b) was 2,256 ± 356 sites/cell, the “Bmax (sites/cell)” value (α1B-1α2bβ1-2 [4]) was 45,324 ± 15,606 sites/cell and the “Bmax (sites/cell)” value (α1B-1β1-2) was 5,756 ± 2,163 sites/cell. For the same molecule, the “Bmax (sites/cell)” value (α1B-1β1-3) was 8,729 ± 2,980 sites/cell, the “Bmax (sites/cell)” value (α1B-2β1-3) was 2,944 ± 1,168 sites/cell and the “Bmax (sites/cell)” value (α1B-1α2bβ1-3) was 91,004 ± 37,654 sites/cell.
`[Cd]` [cadmium] was tested, and the blockage (α1B-1α2bβ1-2 [2]; 50 μM) was “rapid, complete, and reversible”.
`C[C@@H](O)[C@@H]1NC(=O)[C@H](Cc2ccc(O)cc2)NC(=O)[C@@H]2C[C@@H](O)CN2C(=O)[C@H](CC(N)=O)NC(=O)[C@@H]2CSSC[C@@H]3NC(=O)[C@H](CO)NC(=O)[C@H](CO)NC(=O)CNC(=O)[C@@H]4C[C@@H](O)CN4C(=O)[C@H](CO)NC(=O)[C@H](CCCCN)NC(=O)[C@@H](N)CSSC[C@H](NC(=O)[C@H](CSSC[C@@H](C(=O)N[C@@H](Cc4ccc(O)cc4)C(N)=O)NC(=O)[C@H](CCCNC(=N)N)NC(=O)[C@H](CCCCN)NC1=O)NC(=O)[C@H](CC(N)=O)NC(=O)[C@H](Cc1ccc(O)cc1)NC(=O)[C@H](CO)NC(=O)[C@H]([C@@H](C)O)NC(=O)[C@@H]1C[C@@H](O)CN1C(=O)[C@H](CO)NC3=O)C(=O)N[C@@H](CCCNC(=N)N)C(=O)N[C@@H](CO)C(=O)N2` [ω-CgTX] was tested, and the “binding capacity (Bmax)” value [5] was 28,710±11,950 sites per cell, the block of activity (α1B-1α2bβ1-2 [2]) was “blocked the activity completely” and the block of channels (α1B-1α2bβ1-2 [2]) was “blocked irreversibly”. The “time to complete block” value (α1B-1α2bβ1-2 [2]) was at most 2 min.

Source: patent US6528630B1 (priority 1997, dated 2003)
